# Where no end group is shown, it is not given here. Side-chain parts run from the residue outwards. Dab = NCC[C@H](N)C(=O)O
# How the values were obtained:
# normotensive Wistar rats = test: Blood pressure and heart rate in telemetered, normotensive Wistar rats; type: in vivo
# Source text: The cardiovascular effects induced by compounds according to the invention are investigated in freely moving conscious female Wistar rats (body weight>200 g) by radiotelemetric measurement of blood pressure and heart rate. Briefly, the telemetric system (DSI Data Science International, MN, USA) is composed on 3 basic elements: implantable transmitters (TA11PA-C40), receivers (RA1010) and a computer-based acquisition software (Dataquest™ A.R.T. 4.1 for Windows). Rats are instrumented with pressure implants for chronic use at least 14 days prior to the experiments. The sensor catheter is tied with 4-0 suture several times to produce a stopper 0.5 cm from the tip of the catheter. During catheter implantation rats are anesthetized with pentobabital (Nembutal, Sanofi: 50 mg/kg i.p.). After shaving the abdominal skin, a midline abdominal incision is made, and the fluid-filled sensor catheter is inserted upstream into the exposed descending aorta between the iliac bifurcation and the renal arteries. The catheter is tied several times at the stopper. The tip of the telemetric catheter is located just caudal to the renal arteries and secured by tissue adhesive. The transmitter body is affixed to the inner peritoneal wall before closure of abdomen. A two-layer closure of the abdominal incision is used, with individual suturing of the peritoneum and the muscle wall followed by closure of the outer skin. For postsurgical protection against infections and pain a single dosage of an antibiotic (Oxytetracyclin 10% R, 5.0 ml/kg s.c., beta-pharma GmbH&Co, Germany) and analgesic is injected (Rimadyl R, 5.0 ml/kg s.c., Pfizer, Germany). The hardware configuration is equipped for 24 animals. Each rat cage is positioned on top of an individual receiver platform. After activation of the implanted transmitters, an on-line data acquisition system, samples data and converts telemetric pressure signals to mm Hg. A barometric pressure reference allows for relation of absolute pressure (relative to vacuum) to ambient atmospheric pressure. […]
# Göttingen minipigs [1] = test: Acute lung injury in mini pigs induced by intratracheal LPS; type: in vivo
# Source text: (§1) Acute lung injury is induced in anesthetized mini pigs by use of lipopolysaccharide (LPS) or oleic acid as challenges. In detail: female Göttingen minipigs of ca. 3.5 to 5.5 kg body weight (Ellegaard, Denmark) are kept anesthetized by an continuous i.v.-infusion of Ketavet®, Dormicum® and Pancuronium® after premedication with an intramuscular injection of Ketavet®/Stresnil®. After intratracheal intubation animals are artificially ventilated using a pediatric respirator (Sulla 808V; Dräger, Germany) with an oxygen air mixture at a tidal volume of 30 to 50 ml and constant frequency of 25 min^−1. Arterial PaCO2 is adjusted to about 40 mmHg by […]. […] Cellular content of BALF is determined by use of a blood cell counter (Cell DYN 3700). […]
# Göttingen minipigs [2] = test: Acute lung injury in mini pigs induced by oleic acid infusion; type: in vivo
# Source text: as §1
# [3] = target: T1, human adrenomedullin-receptor (Homo sapiens, UniProt O60895+Q16602); test: Recombinant adrenomedullin-receptor reporter cell (CHO, aequorin luminescence); type: cell-based; details: before incubation; read-out: EC50 T = 0 h
# T1 construct: expressed in transfected cells; host or cells: CHO (Chinese hamster ovary) aequorin reporter cell line
# T1 sequence (Q16602 23-461): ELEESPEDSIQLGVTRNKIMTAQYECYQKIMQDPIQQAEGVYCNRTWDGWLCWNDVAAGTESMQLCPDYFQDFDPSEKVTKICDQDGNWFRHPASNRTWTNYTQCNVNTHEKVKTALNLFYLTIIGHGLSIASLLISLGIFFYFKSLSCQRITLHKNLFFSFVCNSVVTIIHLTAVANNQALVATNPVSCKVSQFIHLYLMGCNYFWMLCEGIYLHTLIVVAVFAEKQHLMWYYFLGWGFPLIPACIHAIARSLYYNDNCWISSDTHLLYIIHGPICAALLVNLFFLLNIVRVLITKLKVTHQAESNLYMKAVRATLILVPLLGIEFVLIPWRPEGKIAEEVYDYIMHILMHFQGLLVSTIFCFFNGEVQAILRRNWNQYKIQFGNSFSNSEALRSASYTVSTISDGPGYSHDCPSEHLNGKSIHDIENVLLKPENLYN
# T1 sequence (O60895 43-175): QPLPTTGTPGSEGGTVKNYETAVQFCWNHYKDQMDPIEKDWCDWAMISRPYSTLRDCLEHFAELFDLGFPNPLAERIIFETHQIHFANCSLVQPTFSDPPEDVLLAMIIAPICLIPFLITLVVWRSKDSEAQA
# Experimental: Activation of the receptor by ligands can be measured by aequorin luminescence. Construction of the cell line and measurement procedure has been described in detail [Wunder F., Rebmann A., Geerts A, and Kalthof B., Mol Pharmacol, 73, 1235-1243 (2008)]. In brief: Cells are seeded on opaque 384-well microtiter plates at a density of 4000 cells/well and are grown for […]. After removal of culture medium, cells are loaded for 3 h with 0.6 μg/ml coelenterazine in Ca^2+-free Tyrode solution (130 mM sodium chloride, 5 mM potassium chloride, 20 mM HEPES (4-(2-hydroxyethyl)-1-piperazineethanesulfonic acid), 1 mM magnesium chloride, and 4.8 mM sodium hydrogen carbonate, pH 7.4) supplemented with 0.2 mM 3-Isobutyl-1-methylxanthine (IBMX) in a cell culture incubator. Compounds are added for 6 min in calcium^2+-free Tyrode solution containing 0.1% bovine serum albumin. Immediately before adding calcium^2+ to a final concentration of 3 mM measurement of the aequorin luminescence is started by use of a suitable luminometer. Luminescence is measured for 60 s.
compound,measurement,setting,value
"CC[C@H](C)[C@H](NC(=O)[C@H](CCC(N)=O)NC(=O)[C@H](Cc1c[nH]cn1)NC(=O)[C@H](C)NC(=O)[C@H](CC(C)C)NC(=O)[C@H](CCCCN)NC(=O)[C@H](CCC(N)=O)NC(=O)[C@@H](NC(=O)[C@@H](NC(=O)[C@@H]1CSSC[C@H](NC(=O)CNC(=O)[C@H](Cc2ccccc2)NC(=O)[C@H](CO)NC(=O)[C@H](CCCNC(=N)N)NC(=O)[C@H](CC(C)C)NC(=O)CNC(=O)[C@H](CCC(N)=O)NC(=O)[C@H](Cc2ccccc2)NC(=O)[C@H](CC(N)=O)NC(=O)[C@H](CC(N)=O)NC(=O)[C@H](CCSC)NC(=O)[C@H](CO)NC(=O)[C@H](CCC(N)=O)NC(=O)[C@H](CCCNC(=N)N)NC(=O)[C@@H](N)Cc2ccc(O)cc2)C(=O)N[C@@H](CCCNC(=N)N)C(=O)N[C@@H](Cc2ccccc2)C(=O)NCC(=O)N[C@@H]([C@@H](C)O)C(=O)N1)[C@@H](C)O)C(C)C)C(=O)N[C@@H](Cc1ccc(O)cc1)C(=O)N[C@@H](CCC(N)=O)C(=O)N[C@@H](Cc1ccccc1)C(=O)N[C@H](C(=O)N[C@@H](CC(=O)O)C(=O)N[C@@H](CCCCN)C(=O)N[C@@H](CC(=O)O)C(=O)N[C@@H](CCCCN)C(=O)N[C@@H](CC(=O)O)C(=O)N[C@@H](CC(N)=O)C(=O)N[C@H](C(=O)N[C@@H](C)C(=O)N1CCC[C@H]1C(=O)N[C@@H](CCCNC(=N)N)C(=O)N[C@@H](CO)C(=O)N[C@@H](CCCCN)C(=O)N[C@H](C(=O)N[C@@H](CO)C(=O)N1CCC[C@H]1C(=O)N[C@@H](CCC(N)=O)C(=O)NCC(=O)N[C@@H](Cc1ccc(O)cc1)C(N)=O)[C@@H](C)CC)C(C)C)[C@@H](C)O [ADM, adrenomedullin (human)]",duration of blood pressure reduction,normotensive Wistar rats,≤ 4 h
same,time after which MABP had returned to base line levels,"normotensive Wistar rats; subcutaneous, FIG. 1",about 3.5 hours
same,mean reduction of MABP at peak,"normotensive Wistar rats; subcutaneous, one hour after administration, FIG. 1",~20%
"O-{[(3 S)-3-Amino-4-({(2R)-1-amino-3-[(2,5-dioxo-1-{3-oxo-3-[(2-{ω-methoxy-poly-oxyethylen[40 kDa]}ethyl)amino]propyl}pyrrolidin-3-yl)sulfanyl]-1-oxopropan-2-yl}amino)-4-oxobutyl]carbamoyl}-L-tyrosyl-adrenomedullin(2-52) (Y([Dab-Cys‑NH2-succinimide-PEG 40 kDa])RQSMNNFQGLRSFGCRFGTCTVQKLAHQIYQFTDKDKDNVAPRSKISPQGY; cysteine pairing not given here; also: PEG 40 kDa prodrug linker attached by carbamate to Tyr1 phenol O; UniProt P35318 95-146, looked up) [Example 1, PEG 40 kDa based prodrug of adrenomedullin]",doses found to be active,"Göttingen minipigs [1]; as referred to the peptide component, LPS protocol",≤ 30 μg/kg body weight
same,"LPS induced changes (PAP, EVWLI, PaO2/FiO2, cellular content of BALF)",Göttingen minipigs [1]; i.v.-bolus 15 min before the LPS challenge,ameliorated or prevented
same,"oleic acid induced changes (PAP, EVLWI, PaO2/FiO2)",Göttingen minipigs [2]; administration 15 min before start of the OA infusion,ameliorated or prevented
same,doses found to be active,"Göttingen minipigs [2]; as referred to the peptide component, oleic acid protocol",≤ 30 μg/kg body weight
"O-{[(3-N-Methyl-amino-4-({(2R)-1-amino-3-[(2,5-dioxo-1-{3-oxo-3-[(2-{ω-methoxy-poly-oxyethylen[40 kDa]}ethyl)amino]propyl}pyrrolidin-3-yl)sulfanyl]-1-oxopropan-2-yl}amino)-4-oxobutyl]carbamoyl}-L-tyrosyl-adrenomedullin(2-52) [Example 2]",EC50,[3],> 1 µM

# — patent US10035818B2, “Polyethylene glycol based prodrug of adrenomedullin and use thereof” (Bayer Pharma Aktiengesellschaft, priority 2011, dated 2018)
